# Measured values from PMC5473888 (Scientific Reports, 2017).
# pIC50: −log10 of the molar value.
# Legend:
# [1] = biological target: T1, Y470F-hDAT (Homo sapiens, UniProt Q01959, Y470F); test: Competitive inhibition [3H]DA uptake assay in transfected PC12 cells; type: cell-based; settings: SRI-20041 12.8 µM
# T1 construct: synthetic cDNA encoding hDAT subcloned into pcDNA3.1 +; expressed in transfected cells; host or cells: PC12 cells (ATCC CRL-1721), transient, Lipofectamine 2000, pcDNA3.1+
# From the text: (§1) Results are presented as mean ± SEM, and n represents the number of independent experiments for each experiment group.
# [2] = biological target: T2, WT hDAT (Homo sapiens, UniProt Q01959); test: as above; type: cell-based; set-up: synthetic cDNA encoding hDAT subcloned into pcDNA3.1 +; expressed in transfected cells; host or cells: PC12 cells (ATCC CRL-1721), transient, Lipofectamine 2000, pcDNA3.1+; settings: SRI-20041 12.8 µM
# T2 sequence (Q01959 whole entry): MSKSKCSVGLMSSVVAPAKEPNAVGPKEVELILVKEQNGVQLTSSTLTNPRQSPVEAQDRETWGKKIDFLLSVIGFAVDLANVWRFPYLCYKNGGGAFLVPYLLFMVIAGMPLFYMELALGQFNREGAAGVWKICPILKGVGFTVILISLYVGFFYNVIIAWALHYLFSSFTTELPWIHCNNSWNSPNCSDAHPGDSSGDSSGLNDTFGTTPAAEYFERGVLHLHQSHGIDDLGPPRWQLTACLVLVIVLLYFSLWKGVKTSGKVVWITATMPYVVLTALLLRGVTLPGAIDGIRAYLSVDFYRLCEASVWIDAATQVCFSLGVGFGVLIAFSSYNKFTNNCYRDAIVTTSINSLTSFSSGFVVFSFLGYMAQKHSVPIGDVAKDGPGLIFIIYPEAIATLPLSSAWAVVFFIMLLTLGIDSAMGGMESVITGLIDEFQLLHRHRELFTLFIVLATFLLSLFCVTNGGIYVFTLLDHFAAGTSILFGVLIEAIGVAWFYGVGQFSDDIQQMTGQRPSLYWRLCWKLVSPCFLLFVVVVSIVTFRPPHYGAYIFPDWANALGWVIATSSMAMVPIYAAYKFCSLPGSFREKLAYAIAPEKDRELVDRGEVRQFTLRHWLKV
# From the text: as §1
# [3] = tested on: DA uptake in rat synaptosomes; set-up: method as in PMID 25788711; settings: read-out: Potency for inhibition of DA uptake; cited from earlier work
# [4] = biological target: T2, WT hDAT; test: Tat-induced inhibition of specific [3H]WIN35,428 binding in CHO cells transfected with WT hDAT; set-up: synthetic cDNA encoding hDAT subcloned into pcDNA3.1 +; expressed in transfected cells; host or cells: CHO cells (ATCC CRL-61), transient, Lipofectamine 2000, pcDNA3.1+
# Protocol: CHO cells transfected with WT hDAT were incubated with [^3H]WIN 35,428 (final concentration, 5 nM) with or without recombinant Tat1–86 (rTat1–86) (40 nM, final concentration) on ice for 2 h. […] Data for rTat1–86 and SRI-30827 + rTat1–86 are expressed as the percentage of their respective controls in the absence of rTat1–86 (15675 ± 2982 DPM) and SRI-30827 (14041 ± 3212 DPM) n = 5. *p < 0.05 compared with control value.
# PC12 cells were maintained in the incubator (37 °C, 5% CO2) with DMEM medium supplemented with horse serum (15%) and bovine calf serum (2.5%), glutamine (2 mM), and penicillin-streptomycin (100 U/ml). Chinese hamster ovary cells (CHO cells, ATCC, CRL-61) were maintained in F12 medium with 10% fetal bovine serum and antibiotics (100 U/mL penicillin and 100 µg/mL streptomycin). For hDATs transfection, cells were seeded into poly-D-lysine-coated 24 well plates at a density of 1 × 10^5 cells/well. After 24 h, cells were transfected with WT or mutant DAT plasmids using Lipofectamine 2000 (Life Tech, Carlsbad, CA) based on the manufacturer’s instruction. Cells were used for the experiments after 24 h of transfection.
# T1 sequence (Q01959 whole entry Y470F): as the sequence (Q01959 whole entry) above, with Y470F counted along it
Structure (SMILES),Increase of cocaine IC50 of [3H]DA uptake [1],Increase of cocaine IC50 of [3H]DA uptake [2],pIC50 [3],"Effect on the specific [3H]WIN35,428 binding ([4]; SRI-30827 50 nM alone)","Specific [3H]WIN35,428 binding ([4]; SRI-30827 50 nM in the absence of rTat1–86, CHO cells, n = 5)"
c1ccc(-c2nc(NCCC(c3ccccc3)c3ccccc3)c3ccccc3n2)cc1 [SRI-20041],~ 40%,~ 35%,,,
Cc1cc2nccn2cc1-c1nc(NCC(c2ccccc2)c2ccccc2)c2ccccc2n1 [SRI-30827],,,9.30,did not alter,14041 ± 3212 DPM
